Patent US20020156077A1, “Non-steroidal estrogen receptor ligands” (priority 2001, published 2002)
Read-outs that look alike come from different tables or passages of the source.

Legend:
[1] = test system: MCF-7 cells; experiment: MCF-7 cell proliferation assay (MTT), estradiol stimulated versus unstimulated; format: cell-based, human; settings: FIGS. 1 and 2
Excerpt: Those skilled in the art will appreciate that several acceptable estrogen receptor-binding assays are known and available for initial screening of the compounds of the present invention. The initial screen chosen was a human cell line assay, namely the MCF-7 cell proliferation assay for detecting anti-estrogenic/estrogenic activity. The MCF-7 human breast cancer cell line has been used as an industry standard for the evaluation of estrogen receptor antagonists. MCF-7 cells are estrogen-receptor positive (ER+) cancer cells that respond to estradiol stimulation. Antiestrogenic activity is measured in terms of a test article's ability to inhibit estradiol stimulated proliferation, implying an antagonistic action on the estrogen receptor and estogenic activity can be inferred from increased proliferation. The following testing procedure was used.
MCF-7 cells were maintained in RPMI medium free of phenol red and supplemented with 5% charcoal-stripped foetal calf serum, hydrocortisone, bovine insulin, penicillin and streptomycin until they reached 70% confluence. […] Cell survival was evaluated after 3-6 days, by replacing the culture media with 150 μl of fresh medium containing 10 mM 4-(2-hydroxyethyl)-1-piperazineethamsulfonic acid buffer (pH 7.4) followed by addition of 50 μl of 2.5 mg/ml of 3-(4,5-dimethylthiazo-2-yl)-2,5-diphenyltetrazolium bromide (MTT). […]

[2] = target: human recombinant estrogen receptor beta (Homo sapiens, UniProt Q92731); experiment: Estrogen receptor beta binding assay, displacement of [3H] Estradiol
Method: (§1) The human estrogen receptor occurs in two subtypes, alpha and beta. The stable expression of these individual receptor subtypes in cells provides a rapid and accurate means of quantifying the direct interaction of a test article with the estrogen binding sites. Briefly, this assay is conducted in 96 well plates where a series of concentrations of test article are used to displace tritiated estradiol from either estrogen receptor alpha or estrogen receptor beta bearing cell membranes, under equilibrium conditions. […] This measurement is the primary test for mediation of the estrogen receptor and can also be used to measure the relative selectivity of the test article for either the alpha or beta subtype.
The beta subtype assay also allowed the determination of an IC50 value of the test article under the same conditions as for the alpha subtype assay with the exception that a 7.5 ng aliquot of receptor protein preparation was used.

[3] = target: T1, human recombinant estrogen receptor alpha (Homo sapiens, UniProt P03372); experiment: Estrogen receptor alpha binding assay, displacement of [3H] Estradiol
T1 construct: purchased PanVera Corporation
T1 sequence (P03372 1-595): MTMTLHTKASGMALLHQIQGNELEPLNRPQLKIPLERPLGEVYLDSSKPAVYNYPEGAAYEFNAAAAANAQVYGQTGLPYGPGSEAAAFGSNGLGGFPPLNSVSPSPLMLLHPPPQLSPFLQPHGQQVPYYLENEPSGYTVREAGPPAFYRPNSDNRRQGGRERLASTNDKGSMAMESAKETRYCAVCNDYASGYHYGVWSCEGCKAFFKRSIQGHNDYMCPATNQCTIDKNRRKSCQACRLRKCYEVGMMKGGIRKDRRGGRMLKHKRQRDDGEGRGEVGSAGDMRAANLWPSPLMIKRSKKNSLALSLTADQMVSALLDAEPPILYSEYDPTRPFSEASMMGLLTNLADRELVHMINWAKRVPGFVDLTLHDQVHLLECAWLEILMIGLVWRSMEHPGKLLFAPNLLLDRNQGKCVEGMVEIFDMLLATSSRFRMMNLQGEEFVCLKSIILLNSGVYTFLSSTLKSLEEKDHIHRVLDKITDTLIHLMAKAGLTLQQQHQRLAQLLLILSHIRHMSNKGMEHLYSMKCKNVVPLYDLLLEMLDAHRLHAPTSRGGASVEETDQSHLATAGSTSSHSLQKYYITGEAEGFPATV
Method: as §1
The alpha subtype assay measures the binding of [^3H] Estradiol to the human recombinant estrogen receptor. […] Briefly, after proper dilution, a 4.5 ng aliquot of receptor protein in modified Tris-HCL pH 7.5 buffer is incubated with 0.5 nM [^3H] Estradiol for 2 hours at 25° C. Non-specific binding is estimated in the presence of 1.0 μM diethylstilbestrol. Membranes are filtered and washed 3 times, and the filters are counted to determine [^3H] Estradiol specifically bound. Under the same conditions the receptor protein is incubated with varied concentrations of test article ranging from 1 nM to 1 μM and the displacement of [^3H] Estradiol is measured in duplicate. The measurement of the displaced tritiated estradiol allows the determination of an IC50 value, a direct measure of the test articles interaction with the estrogen receptor alpha.

[4] = test system: tamoxifen-resistant breast cancers; settings: tamoxifen-resistant breast cancer patients; cited from earlier work
[5] = 0.5 nM [3H] Estradiol, 2 hours at 25° C, 4.5 ng receptor protein, read-out: IC50 Value, ER Subtype Alpha
[6] = 0.5 nM [3H] Estradiol, 2 hours at 25° C, 7.5 ng receptor protein, read-out: IC50 Value, ER Subtype Beta

Sequence of human recombinant estrogen receptor beta (Q92731 whole entry): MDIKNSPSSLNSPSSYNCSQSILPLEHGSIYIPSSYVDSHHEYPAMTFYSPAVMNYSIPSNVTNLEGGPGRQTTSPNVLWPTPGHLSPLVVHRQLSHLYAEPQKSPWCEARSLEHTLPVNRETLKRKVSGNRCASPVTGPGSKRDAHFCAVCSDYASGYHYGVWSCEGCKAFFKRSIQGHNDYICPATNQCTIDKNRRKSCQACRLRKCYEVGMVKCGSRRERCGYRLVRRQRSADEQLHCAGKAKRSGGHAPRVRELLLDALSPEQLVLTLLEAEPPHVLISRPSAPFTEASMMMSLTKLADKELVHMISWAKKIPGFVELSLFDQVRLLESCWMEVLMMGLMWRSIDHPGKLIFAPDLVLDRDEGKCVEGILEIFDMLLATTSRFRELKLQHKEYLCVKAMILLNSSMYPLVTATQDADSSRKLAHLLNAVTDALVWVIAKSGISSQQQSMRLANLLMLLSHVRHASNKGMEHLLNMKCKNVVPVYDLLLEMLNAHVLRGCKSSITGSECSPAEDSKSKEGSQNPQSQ

SMILES: CC(=O)c1ccc2c(c1)c(-c1ccc(OCCN3CCCCC3)cc1)cc1cc(O)cc(C)c12 [Formula 4, 1-[7-hydroxy-5-methyl-10-[4-(2-piperidin-1-yl-ethoxy)-phenyl]-phenanthren-2-yl]-ethanone]
- effect on estradiol stimulated MCF-7 cell proliferation (shift of dose-response curves) [1]: antagonizing the effect of estradiol

SMILES: C=C(C)c1ccc2c(c1)c(-c1ccc(OCCN3CCCCC3)cc1)cc1cc(O)cc(C)c12 [formula 5]
- IC50 [2]: 20 nM
- IC50 [3, 5]: 32 nM

SMILES: CC(C)=C(C)c1ccc2c(c1)c(-c1ccc(OCCN3CCCCC3)cc1)cc1cc(O)cc(C)c12 [formula 6, 7-(1,2-dimethylpropenyl)-4-methyl-9-[4-(2-piperidin-1-yl-ethoxy)-phenyl]-phenanthren-2-ol]
- IC50 [2, 6]: 9 nM
- IC50 [3]: 18 nM

SMILES: Cc1cc(O)cc2cc(-c3ccc(OCCN4CCCCC4)cc3)c3cc(C(=O)C(C)C)ccc3c12 [formula 3, 1-[7-hydroxy-5-methyl-10-[4-(2-piperidin-1-yl-ethoxy)-phenyl]-phenanthren-2-yl]-2-methyl-propan-1-one]
- effect on estradiol stimulated MCF-7 cell proliferation (shift of dose-response curves) [1]: antagonizing the effect of estradiol
- IC50 [2, 6]: 120 nM
- IC50 [3, 5]: 39 nM

SMILES: C[C@]12CC[C@@H]3c4ccc(O)cc4C[C@@H](CCCCCCCCC[S+]([O-])CCCC(F)(F)C(F)(F)F)[C@H]3[C@@H]1CC[C@@H]2O (stereo partly drawn) [ICI 182780]
- tamoxifen-resistant patients who responded [4]: approximately two-thirds
